From the METLIN SMRT retention time set (Domingo-Almenara et al. 2019)

Assay: gradient 5% acetonitrile 3 min, to 50% in 2 min, to 85% in 15 min, held 3 min, 100 µL/min
Conditions: column: Zorbax Extend-C18 2.1 x 50 mm; eluents: water / acetonitrile, 0.1% formic acid
Procedure, shortened: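 Using water and acetonitrile that each contained 0.1% formic acid, mixtures of ~100 pure standards were separated at 100 μL/min on a Zorbax Extend-C18 column (2.1 × 50 mm, 1.8 μm). The HPLC fed a quadrupole time-of-flight mass spectrometer working in positive and negative ionization mode, with dead and dwell volumes of 40 μL and 900 μL. Data were acquired over 3 months. Retention time was read from computationally picked adduct peaks after manual inspection of each.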

SMILES	RP-LC retention time [s]
Cc1cc(C(=O)NC2CCCC2)nc2cc(-c3cccs3)nn12	655
O=C(Cn1cnc2nc3c(cc2c1=O)CCCC3)NC1CCCCCC1	662
O=C(CN1CC=C(c2cnn(-c3ccc(F)cc3)c2)CC1)NCc1ccco1	658
CCc1cccc(NC(=O)C2CCN(S(=O)(=O)c3cn(C)cn3)CC2)c1	732
CC(NC(=O)c1sc2ncccc2c1-n1cccc1)c1ccc2c(c1)OCCO2 (stereo not given)	1020
CCOC(=O)c1ccccc1NC(=O)Cn1c(=O)n(-c2cccc(C)c2)c(=O)c2c1cc(C)n2C	966
COc1ccc2c(c1)C=C(C(=O)Nc1ccccc1F)C=CO2	1020
Fc1ccc(CN2CCC(Cc3nc(-c4ccncc4)n[nH]3)C2)c(F)c1 (stereo not given)	552
CCc1cc(=O)n(CC(=O)NCc2ccc(C)cc2)c(N2CCOCC2)n1	747
CCC(C(=O)NC(C)C(=O)Nc1nc2ccccc2[nH]1)c1ccccc1 (stereo not given)	691
CN1CCCC1c1nc(C2CN(C(=O)c3ccnn3C)C2)no1 (stereo not given)	543
CCN1CCN(c2nc(F)c(F)c(S(=O)(=O)CCNc3cccc4ccccc34)c2F)CC1	697
COc1ccc(Cl)cc1NS(=O)(=O)c1cc2c(s1)CCN(C(=O)C1CCC1)C2	973
CS(=O)(=O)N1CCCN(C(=O)Nc2ccccc2)CC1	649
OCCN1CCN(c2ncnc3c2cnn3-c2cccc(Cl)c2)CC1	592
CCc1ccc(-c2nc(-c3ccc4c(c3)ncn4CCN3CCOCC3)no2)cc1	685
CN1C(=O)c2cccnc2Sc2cc(NC(=O)COc3ccccc3)ccc21	813
Cc1cc(NC(=O)C(=O)NCC(c2cn(C)c3ccccc23)N(C)C)no1 (stereo not given)	572
CCC(=O)N1CCc2ccccc2C1C(=O)NCCCN1CCCC1=O (stereo not given)	646
CCn1cc(CN2CCC(N3CC4(CCCCC4)C3c3ccncc3)CC2)cn1 (stereo not given)	565
CC1=C(c2ccccc2)S(=O)(=O)N=C1N1CCCN(C(=O)c2ccccc2)CC1	697
COCC(=O)N(CC(=O)N1CCc2sccc2C1COc1ccc(Cl)cc1)C(C)C (stereo not given)	909
COc1ccc(CNC(=O)Cc2nnc(-c3ccc4ncccc4c3)o2)cc1OC	646

SMILES	RP-LC retention time [s]
CCn1cc(C(=O)Nc2ccccc2F)c2cccnc21	812
O=C(COc1ccccc1)Nc1nnc(C2=COCCO2)o1	651
Cc1[nH]c(C)c(S(=O)(=O)N2CCN(c3ccccn3)CC2)c1C(=O)N1CCCCC1	606
O=C(c1ccncc1)N1CCCCC1c1nc(-c2ccc(F)cc2)no1 (stereo not given)	673
C=CCNc1nc(-c2ccc(Cl)cc2)cs1	984
Cc1ccc(N2CCN(S(=O)(=O)c3cc(-c4nnc(C5CC5)o4)co3)CC2)cc1	818
Cn1cnc2cc(-c3noc(CNC(=O)Cc4ccc(Cl)cc4)n3)ccc21	652
COCCN1C(=O)CCC2(CNC(=O)c3sccc3C)CCCC=C12 (stereo not given)	804
Nc1ccc2c(c1)CN1C(=O)c3ccccc3C1=N2	639
Cc1ccc(-c2noc(CN3N=NC4C(=O)N(c5cccc(F)c5)C(=O)C43)n2)cc1 (stereo not given)	1020
O=C(Nc1cccc(F)c1)N1C[C@H]2C[C@H](C1)[C@H]1CCCC(=O)N1C2	660
Cc1cnc(C(=O)NC2C[C@H]3CC[C@@H](C2)N3C(=O)CCC2CCCCC2)cn1 (stereo not given in full)	821
CCC(C)NC(=O)Cn1ncc2c(c1=O)N(C)C(=O)CS2 (stereo not given)	606
CCSCCOC(=O)C1=C(C)NC2=C(C(=O)C(C(=O)OC)C(C)C2)C1c1ccccc1OC (stereo not given)	967
C=CCNC(=O)C1CCCN(C(=O)Nc2ccc(NC(=O)Nc3ccc(C)c(C)c3)cc2)C1 (stereo not given)	766
Cc1sc(NC(=O)C(F)(F)F)nc1-c1ccc2c(c1)NC(=O)CO2	763
CCc1ccc(CNC(=O)CCC2CCCN(S(=O)(=O)c3ccccc3C)C2)cc1 (stereo not given)	1070
CCOc1ccc(NC(=O)Cc2nnc(-c3ccc4ncccc4c3)o2)cc1	718
O=C(CSc1ccc(-n2ccnc2)nn1)NC1CCCCC1	564
CCn1ccc(C(=O)N2CC(Oc3ccc(-c4nc(C)no4)cc3)C2)n1	819
CCC(=O)N1CCc2cc(N3CC(C(=O)Nc4cccc(OC)c4)CC3=O)ccc21 (stereo not given)	750
Cn1cnc([N+](=O)[O-])c1Sc1ncn[nH]1	626
O=C(NCc1cccnc1)C1(c2ccc(F)cc2)CC1	568

SMILES	RP-LC retention time [s]
CCCN(CC(=O)N1CCc2sccc2C1COc1ccccc1OC)C(=O)COC (stereo not given)	800
Cc1cc(-c2nn3c(COc4ccc(Cl)cc4)nnc3s2)no1	948
Cc1ccc(-n2ncc3c(=O)n(Cc4nc(-c5ccc(Cl)cc5)no4)cnc32)cc1	1160
CN(C)c1cccc(C(=O)N2CCc3nc[nH]c3C2)c1	578
CCn1cc(C)c(C(=O)O)c1CC(=O)NCc1ccc2c(c1)OCO2	734
CC(C)N1CCN(C(=O)CC2Sc3ncccc3N(C)C2=O)CC1 (stereo not given)	570
Cc1cc(C(=O)N2CCCCC2c2nncn2-c2ccccc2)nn1C (stereo not given)	647
Cc1cc(=O)n(CC(=O)N2CCCc3ccccc32)c(N2CCOCC2)n1	687
O=c1n(Cc2cccc(C(F)(F)F)c2)nc2c(S(=O)(=O)N3CCc4ccccc4C3)cccn12	1010
COc1ccc(Cc2nnc3sc(-c4cnccn4)nn23)cc1	730
CCCN1C(=O)c2ccccc2Sc2cc(-c3noc(CNC(=O)c4ccco4)n3)ccc21	911
COCCCN1CN=C(Nc2nc(C)c3ccccc3n2)NC1	626
O=c1c(=O)n(-c2ccccc2)ccn1Cc1nc(-c2cccc(Br)c2)no1	885
COc1ccc(-c2nnc(COc3ccc(NS(C)(=O)=O)cc3)o2)cc1	762
CNC(=O)[C@@H]1C[C@H](Oc2ccccc2)CN1C(=O)CCCc1c[nH]c2ccccc12	800
Cc1ccc2c(=O)c3c([nH]c2c1C)CCN(CC(=O)Nc1ccc2c(c1)OCCO2)C3	667
CCOc1ccc(-n2cc(-c3nc(-c4cccc(OC)c4)no3)c3ccccc3c2=O)cc1	1390
Cc1c(CCC(=O)NCC2CCCO2)c(=O)n2nc(-c3ccccc3)nc2n1C (stereo not given)	668
O=C(CCn1nnc2cc(-c3noc(-c4ccc(Cl)cc4)n3)ccc21)N1CCCC1	1010
O=C(NC1CCN(C(=O)c2cc(-c3cccs3)[nH]n2)CC1)c1cccs1	695
COc1ccc(-c2nnc(CC(=O)NC3CCCCCC3)o2)cc1	780
O=C(NCCCc1ccccc1)C1CCCN(c2nc3ccsc3c(=O)n2-c2ccc(F)cc2)C1 (stereo not given)	951
COc1ccc2c(c1)C1(CCN(C(=O)Cc3ccccc3C)C1)C(=O)N2C (stereo not given)	826

SMILES	RP-LC retention time [s]
O=C(NC1CCS(=O)(=O)C1)c1ccc(C(=O)c2ccccc2)cc1 (stereo not given)	675
O=C(NCC(=O)N1CCn2c1nc1ccccc12)c1ccc(=O)[nH]c1	555
COc1ccc(Cn2nnc(C(=O)NCC3CCCO3)c2-n2cccc2)cc1 (stereo not given)	832
CCN1CCN(C(=O)c2cnn(-c3cc(-c4nc(C5CC5)no4)ccn3)c2C)CC1	641
Cc1ccc(S(=O)(=O)C2CS(=O)(=O)CC2S(=O)(=O)c2ccc(C)cc2)cc1 (stereo not given)	856
CCS(=O)(=O)c1ccc2c(c1)N(Cc1nc(-c3ccc(OC(C)C)cc3)no1)C(=O)CO2	991
COc1ccc([N+](=O)[O-])cc1NC(=O)N(C)Cc1ccco1	922
COc1ccc(C2CC(=O)c3c(C)nc(N4CCN(CCO)CC4)nc3C2)cc1 (stereo not given)	638
O=C(Nc1ccc(SCc2nnc(-c3ccc4c(c3)OCO4)o2)cc1)C1CCCCC1	1020
O=C(NCc1ccco1)Nc1ccccc1Cl	766
CCCN1C(=O)COc2ccc(-c3noc(-c4cccc(Br)c4)n3)cc21	1400
O=C(NCC(c1cccnc1)N1CCc2ccccc2C1)C(=O)NC1CCCCCC1 (stereo not given)	681
CN1C(=O)c2cc(C(=O)NCc3cccc(Cl)c3)nn2CC1(C)C(=O)NC1CCCCC1 (stereo not given)	793
O=S(=O)(c1cccn2c(SCc3cc(F)cc(F)c3)nnc12)N1CCCC1	845
Cc1ccc(S(=O)(=O)N2CCC(n3c(-c4ccoc4)nc4cccnc43)C2)cc1Cl (stereo not given)	986
COc1ccc(CNC(=O)NCc2cccnc2OC)cc1	691
Cc1cc2nn(CC(=O)Nc3ccccc3)c(=O)n2c(-c2ccccc2)n1	769
Cc1nc(C)c(C(=O)NCC23CCCC=C2N(C)C(=O)CC3)s1 (stereo not given)	682
COc1ccccc1/C=C/c1nn2c(-c3cccnc3)nnc2s1	872
CCN1C(=O)c2cc(S(=O)(=O)Nc3ccc(C)cc3)ccc2Oc2cccnc21	970
CCC1Oc2ccc(S(=O)(=O)N3CCC(C(=O)Nc4cc(C)ccc4OC)CC3)cc2NC1=O (stereo not given)	936
